We go through 13 molecules from ChEMBL document CHEMBL2062511, “Synthesis and anti-HIV activities of symmetrical dicarboxylate esters of dinucleoside reverse transcriptase inhibitors” (Bioorg Med Chem Lett, 2012).

As a reminder, the pEC50 is the negative decadic logarithm of the EC50, by convention in mol/L.

Each structure is given as a SMILES string. pEC50: −log10 of the molar value. Bounds are passed on as bounds.

The subject of data set [1] is Human immunodeficiency virus 1. The data set can be described thus: Antiviral activity against HIV-1 subtype B US/92/727 infected in PBMC assessed as inhibition of viral replication after 7 days by XTT assay. In kind it is functional, organism-based. Particulars: Human immunodeficiency virus 1, subtype B US/92/727, 168 h. Background: Tetrazolium assays rely on reduction of a dye to a coloured formazan, in cell work by metabolically active cells.

Data set [2] has as its system Human immunodeficiency virus 1. The data set can be described thus: Antiviral activity against HIV-1 subtype 3B infected in CEM-SS cells assessed as inhibition of viral replication after 6 days by XTT assay. Particulars: Human immunodeficiency virus 1, subtype 3B, 144 h. It counts as functional, organism-based.
The nature of data set [3]: Cytotoxicity against human CEM-SS cells by XTT method. It counts as cell-based. Particulars: read-out: TC50 (the source's name).
Data set [4] can be described thus: Therapeutic index, ratio of TC50 for human CEM-SS cells to EC50 for HIV-1 subtype 3B infected in CEM-SS cells. Particulars: uninfected and infected with HIV-1 subtype 3B, read-out: TI. In kind it is cell-based.
A short description of data set [5]: Cytotoxicity against human PBMC. In kind it is cell-based. Particulars: read-out: TC50 (the source's name).
Data set [6] is described as follows: Therapeutic index, ratio of TC50 for human PBMC to EC50 for HIV-1 subtype B US/92/727 infected in PBMC. Particulars: uninfected and infected with HIV-1 subtype B US/92/727, read-out: TI.
Data set [7] relates to Human immunodeficiency virus 1. The data set can be described thus: Ratio of FLT EC50 to compound EC50 for HIV-1 subtype 3B infected in CEM-SS cells. It counts as functional.
Data set [8] deals with Human immunodeficiency virus 1. In words: Ratio of FLT EC50 to compound EC50 for HIV-1 subtype B US/92/727 infected in PBMC. It counts as functional.
In data set [9] the test system is Human immunodeficiency virus 1. In words: Ratio of 3TC EC50 to compound EC50 for HIV-1 subtype B US/92/727 infected in PBMC. It counts as functional.
The subject of data set [10] is Human immunodeficiency virus 1. In words: Ratio of 3TC EC50 to compound EC50 for HIV-1 subtype 3B infected in CEM-SS cells. In kind it is functional.
The subject of data set [11] is Human immunodeficiency virus 1. In words: Ratio of AZT EC50 to compound EC50 for HIV-1 subtype B US/92/727 infected in PBMC. In kind it is functional.

For the molecule `Cc1cn([C@H]2C[C@H](F)[C@@H](COC(=O)CCCCCCCCC(=O)OC[C@H]3O[C@@H](n4cc(C)c(=O)[nH]c4=O)C[C@@H]3F)O2)c(=O)[nH]c1=O`, the negative logarithm of the EC50 (pEC50) in [1] was 9.00; in data set [2] it was 8.40. For the same molecule, the CC50 in [3] and in data set [5] was > 1000 nM throughout. For the same molecule, the selectivity ratio in [4] was > 250; in data set [6], > 1000. Further, in data set [7], the “Ratio EC50” value is 5.

For `Cc1cn([C@H]2C[C@H](F)[C@@H](COC(=O)CCCCCCCCCCC(=O)OC[C@H]3O[C@@H](n4cc(C)c(=O)[nH]c4=O)C[C@@H]3F)O2)c(=O)[nH]c1=O`, the pEC50 in data set [1] is 9.01; in data set [2], 8.40. For the same molecule, the CC50 in data set [3] and in [5] was > 1000 nM each time. Also, the selectivity ratio in data set [4] was > 250; in data set [6] it was > 1030. Also, the “Ratio EC50” value in [8] was 2; in data set [7], 5.

For the molecule `Cc1cn([C@H]2C[C@H](F)[C@@H](COC(=O)CCCCCCCCCCCCC(=O)OC[C@H]3O[C@@H](n4cc(C)c(=O)[nH]c4=O)C[C@@H]3F)O2)c(=O)[nH]c1=O`, the negative logarithm of the EC50 (pEC50) in [1] is 9.12; in data set [2], 8.52. Moreover, the CC50 in [3] and in data set [5] was > 1000 nM in each case. Also, the values for the selectivity ratio in [4] and in data set [6] were > 333 and > 1320, respectively. The “Ratio EC50” value in [8] is reported as 2; in data set [7], 5.

As to `Cc1cn([C@H]2C[C@H](N=[N+]=[N-])[C@@H](COC(=O)CCCCCCCCC(=O)OC[C@H]3O[C@@H](n4cc(C)c(=O)[nH]c4=O)C[C@@H]3N=[N+]=[N-])O2)c(=O)[nH]c1=O`, the pEC50 in data set [1] is 8.40; in [2] it was 8.30. Further, the CC50 in data set [3] and in [5] was > 1000 nM throughout. Besides, the selectivity ratio in [4] is > 200; in data set [6], > 250.

Regarding `Cc1cn([C@H]2C[C@H](N=[N+]=[N-])[C@@H](COC(=O)CCCCCCCCCCC(=O)OC[C@H]3O[C@@H](n4cc(C)c(=O)[nH]c4=O)C[C@@H]3N=[N+]=[N-])O2)c(=O)[nH]c1=O`, the pEC50 was 8.70 in [1] and 8.40 in [2]. Moreover, the CC50 in data set [3] and in data set [5] was > 1000 nM in each case. The figures for the selectivity ratio in data set [4] and in data set [6] were > 250 and > 500, respectively.

Take `Cc1cn([C@H]2C[C@H](N=[N+]=[N-])[C@@H](COC(=O)CCCCCCCCCCCCC(=O)OC[C@H]3O[C@@H](n4cc(C)c(=O)[nH]c4=O)C[C@@H]3N=[N+]=[N-])O2)c(=O)[nH]c1=O`: the negative-log EC50 (pEC50) in data set [1] and in [2] was 8.52 in each case. In addition, the CC50 in data set [3] and in [5] was > 1000 nM in each case. In addition, the selectivity ratio in data set [4] and in data set [6] was > 333 in each case.

Turning to `Nc1ccn([C@@H]2CS[C@H](COC(=O)CCC(=O)OC[C@@H]3O[C@H](n4ccc(N)nc4=O)CS3)O2)c(=O)n1`, the negative logarithm of the EC50 (pEC50) in [1] is 6.82; in data set [2], 6.89. Besides, the CC50 in [3] and in data set [5] was > 1000 nM in each case. For the same molecule, the selectivity ratio in data set [4] is > 7.7; in data set [6], > 7.

Turning to `Nc1ccn([C@@H]2CS[C@H](COC(=O)CCCCCCCCC(=O)OC[C@@H]3O[C@H](n4ccc(N)nc4=O)CS3)O2)c(=O)n1`, the negative-log EC50 (pEC50) in data set [1] was 7.22; in data set [2] it was 7.52. Also, the CC50 in data set [3] and in [5] was > 1000 nM in each case. The selectivity ratio in [4] was > 33; in data set [6], > 17. Besides, the “Ratio EC50” value in data set [9] and in data set [10] was 1.5 in each case.

Take `Nc1ccn([C@@H]2CS[C@H](COC(=O)CCCCCCCCCCC(=O)OC[C@@H]3O[C@H](n4ccc(N)nc4=O)CS3)O2)c(=O)n1`: the negative-log EC50 (pEC50) in data set [1] is 7.70; in [2], 8.05. Moreover, the CC50 in [3] and in data set [5] was > 1000 nM each time. The selectivity ratio in data set [4] is > 333; in data set [6] it was > 50.

As to `Nc1ccn([C@@H]2CS[C@H](COC(=O)CCCCCCCCCCCCC(=O)OC[C@@H]3O[C@H](n4ccc(N)nc4=O)CS3)O2)c(=O)n1`, the pEC50 is 7.52 in data set [1] and 8.52 in data set [2]. For the same molecule, the CC50 in data set [3] and in data set [5] was > 1000 nM throughout. Also, the results for the selectivity ratio in data set [4] and in data set [6] were > 333 and > 33, respectively. The “Ratio EC50” value in data set [9] and in data set [10] was 3 each time.

In the case of `Cc1cn([C@H]2C[C@H](F)[C@@H](CO)O2)c(=O)[nH]c1=O` [ALOVUDINE], the pEC50 in data set [1] was 8.70; in data set [2] it was 7.70. The CC50 in [3] and in data set [5] was > 500 nM throughout. Besides, the selectivity ratio in data set [4] was > 25; in data set [6] it was > 250. Also, the entries for the “Ratio EC50” value in [7] and in [11] were 4 and 45, respectively.

As to `Nc1ccn([C@@H]2CS[C@H](CO)O2)c(=O)n1` [LAMIVUDINE], the negative-log EC50 (pEC50) in data set [1] is 7.05; in [2], 6.70. Further, the CC50 in data set [3] and in data set [5] was > 500 nM in each case. Moreover, the selectivity ratio in [4] was > 2.5; in [6] it was > 5.6.

Turning to `Cc1cn([C@H]2C[C@H](N=[N+]=[N-])[C@@H](CO)O2)c(=O)[nH]c1=O` [ZIDOVUDINE], the figures for the pEC50 in [1] and in [2] were 8.10 and 8.70, respectively. Besides, the CC50 was > 500 nM in [3] and > 1000 nM in data set [5]. Moreover, the selectivity ratio in data set [4] is > 250; in data set [6], > 125.
